Reference: patent US9510592B2, “Pesticidal compositions and processes related thereto” (Dow AgroSciences LLC, priority 2012, dated 2016)

System: Beet Armyworm (Spodoptera exigua)
Assay: Bioassay on Beet Armyworm (BAW), 128-well diet tray assay
Format: in vivo
Conditions: percent mortality of second instar larvae, 50 μg/cm^2 on artificial diet, five to seven days, 25° C.; Table 3
Experimental: Certain molecules disclosed in this document were tested against BAW and CEW and CL using procedures described in the following examples. In the reporting of the results, the “BAW & CEW & CL Rating Table” was used (See Table Section).
Bioassays on BAW (Spodoptera exigua)
Bioassays on BAW were conducted using a 128-well diet tray assay. one to five second instar BAW larvae were placed in each well (3 mL) of the diet tray that had been previously filled with 1 mL of artificial diet to which 50 μg/cm^2 of the test compound (dissolved in 50 μL of 90:10 acetone-water mixture) had been applied (to each of eight wells) and then allowed to dry. Trays were covered with a clear self-adhesive cover, and held at 25° C., 14:10 light-dark for five to seven days. Percent mortality was recorded for the larvae in each well; activity in the eight wells was then averaged. The results are indicated in the table entitled “Table 3: Assay Results” (See Table Section).

Structure (SMILES)	BAW Rating
O=C(CC(F)(F)F)NCc1ccc(/C=C/C(c2cc(Cl)c(Cl)c(Cl)c2)C(F)(F)F)cc1Br (stereo not shown) [CC25]	A (50-100)
O=C(NCc1ccc(/C=C/C(c2cc(Cl)c(Cl)c(Cl)c2)C(F)(F)F)cc1Br)C1CC1 (stereo not shown) [CC26]	A (50-100)
O=C(CC(F)(F)F)NCc1ccc(/C=C/C(c2cc(Cl)c(Cl)c(Cl)c2)C(F)(F)F)cc1F (stereo not shown) [CC27]	A (50-100)
O=C(NCc1ccc(/C=C/C(c2cc(Cl)c(Cl)c(Cl)c2)C(F)(F)F)cc1F)C1CC1 (stereo not shown) [CC28]	A (50-100)
O=C(C1CC1)N(Cc1ccccn1)Cc1ccc(/C=C/C(c2cc(Cl)c(Cl)c(Cl)c2)C(F)(F)F)cc1C(F)(F)F (stereo not shown) [CC29, (E)-N-(Pyridin-2-ylmethyl)-N-(4-(4,4,4-trifluoro-3-(3,4,5-trichlorophenyl)but-1-enyl)-2-(trifluoromethyl)benzyl)cyclopropanecarboxamide]	A (50-100)
CS(=O)(=O)CCC(=O)NCc1ccc(/C=C/C(c2cc(Cl)c(Cl)c(Cl)c2)C(F)(F)F)cc1Cl (stereo not shown) [CC30, (E)-N-(2-Chloro-4-(4,4,4-trifluoro-3-(3,4,5-trichlorophenyl)but-1-en-1-yl)benzyl)-3-(methylsulfonyl)propanamide]	A (50-100)
CCNC(=O)NCc1ccc(/C=C/C(c2cc(Cl)cc(Cl)c2)C(F)(F)F)cc1Cl (stereo not shown) [CC31, (E)-1-(2-Chloro-4-(3-(3,5-dichlorophenyl)-4,4,4-trifluorobut-1-en-1-yl)benzyl)-3-ethylurea]	B (More than 0-Less than 50)
CCNC(=O)NCc1ccc(/C=C/C(c2cc(Cl)c(Cl)c(Cl)c2)C(F)(F)F)cc1C(F)(F)F (stereo not shown) [CC32]	A (50-100)
CCNC(=O)NCc1ccc(/C=C/C(c2cc(Cl)c(Cl)c(Cl)c2)C(F)(F)F)cc1Br (stereo not shown) [CC33]	A (50-100)
O=C(NCc1ccc(/C=C/C(c2cc(Cl)c(Cl)c(Cl)c2)C(F)(F)F)cc1Cl)N1CCOCC1 (stereo not shown) [CC34]	A (50-100)
CN(C)C(=O)NCc1ccc(/C=C/C(c2cc(Cl)c(Cl)c(Cl)c2)C(F)(F)F)cc1Cl (stereo not shown) [CC36, (E)-3-(2-Chloro-4-(4,4,4-trifluoro-3-(3,4,5-trichlorophenyl)but-1-en-1-yl)benzyl)-1,1-dimethylurea]	A (50-100)
CCNC(=S)NCc1ccc(/C=C/C(c2cc(Cl)c(Cl)c(Cl)c2)C(F)(F)F)cc1Cl (stereo not shown) [CC37, (E)-1-(2-Chloro-4-(4,4,4-trifluoro-3-(3,4,5-trichlorophenyl)but-1-en-1-yl)benzyl)-3-ethylthiourea]	A (50-100)
C=CCNC(=S)NCc1ccc(/C=C/C(c2cc(Cl)c(Cl)c(Cl)c2)C(F)(F)F)cc1Cl (stereo not shown) [CC38]	A (50-100)
FC(F)(F)C(/C=C/c1ccc(CNc2ccccn2)c(Cl)c1)c1cc(Cl)c(Cl)c(Cl)c1 (stereo not shown) [CC43, (E)-N-(2-Chloro-4-(4,4,4-trifluoro-3-(3,4,5-trichlorophenyl)but-1-en-1-yl)benzyl)pyridin-2-amine]	A (50-100)
O=C(CC(F)(F)F)NCc1ncc(/C=C/C(c2cc(Cl)c(Cl)c(Cl)c2)C(F)(F)F)cc1Cl (stereo not shown) [CC44, (E)-N-((3-Chloro-5-(4,4,4-trifluoro-3-(3,4,5-trichlorophenyl)-but-1-en-1-yl)pyridin-2-yl)methyl)-3,3,3-trifluoropropanamide]	A (50-100)
O=C(NCc1ncc(/C=C/C(c2cc(Cl)c(Cl)c(Cl)c2)C(F)(F)F)cc1Cl)C1CC1 (stereo not shown) [CC45]	A (50-100)
O=C(NNc1ccc(/C=C/C(c2cc(Cl)c(Cl)c(Cl)c2)C(F)(F)F)cc1)C1CC1 (stereo not shown) [CC50, (E)-N′-(4-(4,4,4-Trifluoro-3-(3,4,5-trichlorophenyl)but-1-en-1-yl)phenyl)cyclopropanecarbohydrazide]	A (50-100)
O=C(CC(F)(F)F)NNc1ccc(/C=C/C(c2cc(Cl)c(Cl)c(Cl)c2)C(F)(F)F)cc1 (stereo not shown) [CC51]	A (50-100)
O=C(NOc1ccc(/C=C/C(c2cc(Cl)c(Cl)c(Cl)c2)C(F)(F)F)cc1)C1CC1 (stereo not shown) [CC52, (E)-N-(4-(4,4,4-Trifluoro-3-(3,4,5-trichlorophenyl)but-1-en-1-yl)phenoxy)cyclopropanecarboxamide]	A (50-100)

Structure (SMILES)	BAW Rating
O=C(CC(F)(F)F)NCc1ccc(/C=C\C(c2cc(Cl)c(Cl)c(Cl)c2)C(F)(F)F)cc1 (stereo not shown) [CC54, (Z)-3,3,3-Trifluoro-N-(4-(4,4,4-trifluoro-3-(3,4,5-trichlorophenyl)but-1-en-1-yl)benzyl)propanamide]	A (50-100)
FC(F)(F)C(/C=C/c1ccc(-n2cncn2)cc1)c1cc(Cl)cc(Cl)c1 (stereo not shown) [DC1, (E)-1-(4-(3-(3,5-Dichlorophenyl)-4,4,4-trifluorobut-1-en-1-yl)phenyl)-1H-1,2,4-triazole]	A (50-100)
FC(F)(F)C(/C=C/c1ccc(-n2cncn2)cc1)c1ccccc1 (stereo not shown) [DC3]	B (More than 0-Less than 50)
FC(F)(F)C(/C=C/c1ccc(-n2cncn2)cc1)c1ccc(Cl)cc1 (stereo not shown) [DC4]	A (50-100)
Fc1ccc(C(/C=C/c2ccc(-n3cncn3)cc2)C(F)(F)F)cc1 (stereo not shown) [DC7]	A (50-100)
Fc1cc(F)cc(C(/C=C/c2ccc(-n3cncn3)cc2)C(F)(F)F)c1 (stereo not shown) [DC8]	A (50-100)
Cc1cc(C)cc(C(/C=C/c2ccc(-n3cncn3)cc2)C(F)(F)F)c1 (stereo not shown) [DC11]	A (50-100)
FC(F)(F)C(/C=C/c1ccc(-n2cncn2)cc1)c1ccc(Cl)c(Cl)c1 (stereo not shown) [DC12]	A (50-100)
FC(F)(F)c1cc(C(/C=C/c2ccc(-n3cncn3)cc2)C(F)(F)F)cc(C(F)(F)F)c1 (stereo not shown) [DC16]	A (50-100)
COc1c(Cl)cc(C(/C=C/c2ccc(-n3cncn3)cc2)C(F)(F)F)cc1Cl (stereo not shown) [DC20]	A (50-100)
N#Cc1cc(/C=C/C(c2cc(Cl)cc(C(F)(F)F)c2)C(F)(F)F)ccc1-n1cncn1 (stereo not shown) [DC33]	A (50-100)
COc1c(Cl)cc(C(/C=C/c2ccc(-n3cncn3)c(C#N)c2)C(F)(F)F)cc1Cl (stereo not shown) [DC34]	A (50-100)
N#Cc1cc(/C=C/C(c2cc(Cl)c(F)c(Cl)c2)C(F)(F)F)ccc1-n1cncn1 (stereo not shown) [DC35]	A (50-100)
N#Cc1cc(/C=C/C(c2cc(Cl)cc(Cl)c2)C(F)(F)F)ccc1-n1cnc([N+](=O)[O-])n1 (stereo not shown) [DC37]	A (50-100)
N#Cc1cc(/C=C/C(c2cc(Cl)cc(Cl)c2)C(F)(F)F)ccc1-n1cnc(N)n1 (stereo not shown) [DC38]	A (50-100)
CC(=O)Nc1ncn(-c2ccc(/C=C/C(c3cc(Cl)cc(Cl)c3)C(F)(F)F)cc2C#N)n1 (stereo not shown) [DC39]	A (50-100)
N#Cc1cc(/C=C/C(c2cc(Cl)c(Cl)c(Cl)c2)C(F)(F)F)ccc1-n1cnc([N+](=O)[O-])n1 (stereo not shown) [DC40, (E)-2-(3-Nitro-1H-1,2,4-triazol-1-yl)-5-(4,4,4-trifluoro-3-(3,4,5-trichlorophenyl)but-1-en-1-yl)benzonitrile]	A (50-100)
N#Cc1cc(/C=C/C(c2cc(Cl)c(Cl)c(Cl)c2)C(F)(F)F)ccc1-n1cnc(N)n1 (stereo not shown) [DC41, (E)-2-(3-Amino-1H-1,2,4-triazol-1-yl)-5-(4,4,4-trifluoro-3-(3,4,5-trichlorophenyl)but-1-en-1-yl)benzonitrile]	A (50-100)
